ChEMBL document CHEMBL1124300, “Deletion sequences of salmon calcitonin that retain the essential biological and conformational features of the intact molecule” (1988)
Residues, ends and D or L forms follow the SMILES beside them.

The molecules below were run on Rattus norvegicus (assay: In vivo hypocalcemic activity measuring the hormone-induced decrease of blood calcium levels in rats).
Format: functional
Molecule `CC(C)C[C@H](NC(=O)[C@H](CCCCN)NC(=O)CNC(=O)[C@H](CC(C)C)NC(=O)[C@@H](NC(=O)[C@@H]1CSSC[C@H](N)C(=O)N[C@@H](CO)C(=O)N[C@@H](CC(N)=O)C(=O)N[C@@H](CC(C)C)C(=O)N[C@@H](CO)C(=O)N[C@@H]([C@@H](C)O)C(=O)N1)C(C)C)C(=O)N[C@@H](CO)C(=O)N[C@@H](CCC(N)=O)C(=O)N[C@@H](CCC(=O)O)C(=O)N[C@@H](CC(C)C)C(=O)N[C@@H](Cc1c[nH]cn1)C(=O)N[C@@H](CCCCN)C(=O)N[C@@H](CC(C)C)C(=O)N[C@@H](CCC(N)=O)C(=O)N[C@H](C(=O)N1CCC[C@H]1C(=O)N[C@@H](CCCN=C(N)N)C(=O)N[C@H](C(=O)N[C@@H](CC(N)=O)C(=O)N[C@H](C(=O)NCC(=O)N[C@@H](CO)C(=O)NCC(=O)N[C@H](C(=O)N1CCC[C@H]1C(N)=O)[C@@H](C)O)[C@@H](C)O)[C@@H](C)O)[C@@H](C)O` (HELM PEPTIDE1{C.S.N.L.S.T.C.V.L.G.K.L.S.Q.E.L.H.K.L.Q.T.P.R.T.N.T.G.S.G.T.P.[am]}$PEPTIDE1,PEPTIDE1,1:R3-7:R3$$$V2.0) has a Hypocalcemic activity of 5200 IU mg-1. With `CC(C)C[C@H](NC(=O)[C@H](CCCCN)NC(=O)CNC(=O)[C@H](CC(C)C)NC(=O)[C@@H](NC(=O)[C@@H]1CSSC[C@H](N)C(=O)N[C@@H](CO)C(=O)N[C@@H](CC(N)=O)C(=O)N[C@@H](CC(C)C)C(=O)N[C@@H](CO)C(=O)N[C@@H]([C@@H](C)O)C(=O)N1)C(C)C)C(=O)N[C@@H](CO)C(=O)N[C@@H](CCC(N)=O)C(=O)N[C@@H](CCC(=O)O)C(=O)N[C@@H](CC(C)C)C(=O)N[C@@H](Cc1c[nH]cn1)C(=O)N[C@@H](CCCCN)C(=O)N[C@@H](CC(C)C)C(=O)N[C@@H](CCC(N)=O)C(=O)N[C@@H](Cc1ccc(O)cc1)C(=O)N1CCC[C@H]1C(=O)N[C@@H](CCCN=C(N)N)C(=O)N[C@H](C(=O)N[C@@H](CC(N)=O)C(=O)N[C@H](C(=O)NCC(=O)N[C@@H](CO)C(=O)NCC(=O)N[C@H](C(=O)N1CCC[C@H]1C(N)=O)[C@@H](C)O)[C@@H](C)O)[C@@H](C)O` (HELM PEPTIDE1{C.S.N.L.S.T.C.V.L.G.K.L.S.Q.E.L.H.K.L.Q.Y.P.R.T.N.T.G.S.G.T.P.[am]}$PEPTIDE1,PEPTIDE1,1:R3-7:R3$$$V2.0) the Hypocalcemic activity was 5500 IU mg-1. Molecule `CC(C)C[C@H](NC(=O)[C@H](CCCCN)NC(=O)CNC(=O)[C@H](CC(C)C)NC(=O)[C@@H](NC(=O)[C@@H]1CSSC[C@H](N)C(=O)N[C@@H](CO)C(=O)N[C@@H](CC(N)=O)C(=O)N[C@@H](CC(C)C)C(=O)N[C@@H](CO)C(=O)N[C@@H]([C@@H](C)O)C(=O)N1)C(C)C)C(=O)N[C@@H](CO)C(=O)N[C@@H](CCC(N)=O)C(=O)N[C@@H](CCC(=O)O)C(=O)N[C@@H](CC(C)C)C(=O)N[C@@H](Cc1c[nH]cn1)C(=O)N[C@@H](CCCCN)C(=O)N[C@@H](CC(C)C)C(=O)N[C@H](C(=O)N[C@@H](Cc1ccc(O)cc1)C(=O)N1CCC[C@H]1C(=O)N[C@@H](CCCN=C(N)N)C(=O)N[C@H](C(=O)N[C@@H](CC(N)=O)C(=O)N[C@H](C(=O)NCC(=O)N[C@@H](CO)C(=O)NCC(=O)N[C@H](C(=O)N1CCC[C@H]1C(N)=O)[C@@H](C)O)[C@@H](C)O)[C@@H](C)O)[C@@H](C)O` (HELM PEPTIDE1{C.S.N.L.S.T.C.V.L.G.K.L.S.Q.E.L.H.K.L.T.Y.P.R.T.N.T.G.S.G.T.P.[am]}$PEPTIDE1,PEPTIDE1,1:R3-7:R3$$$V2.0) has a Hypocalcemic activity of 4000 IU mg-1. `CC(C)C[C@H](NC(=O)[C@H](CCCCN)NC(=O)CNC(=O)[C@H](CC(C)C)NC(=O)[C@@H](NC(=O)[C@@H]1CSSC[C@H](N)C(=O)N[C@@H](CO)C(=O)N[C@@H](CC(N)=O)C(=O)N[C@@H](CC(C)C)C(=O)N[C@@H](CO)C(=O)N[C@@H]([C@@H](C)O)C(=O)N1)C(C)C)C(=O)N[C@@H](CO)C(=O)N[C@@H](CCC(N)=O)C(=O)N[C@@H](CCC(=O)O)C(=O)N[C@@H](CC(C)C)C(=O)N[C@@H](Cc1c[nH]cn1)C(=O)N[C@@H](CCCCN)C(=O)N1CCC[C@H]1C(=O)N[C@@H](CCCN=C(N)N)C(=O)N[C@H](C(=O)N[C@@H](CC(N)=O)C(=O)N[C@H](C(=O)NCC(=O)N[C@@H](CO)C(=O)NCC(=O)N[C@H](C(=O)N1CCC[C@H]1C(N)=O)[C@@H](C)O)[C@@H](C)O)[C@@H](C)O` (HELM PEPTIDE1{C.S.N.L.S.T.C.V.L.G.K.L.S.Q.E.L.H.K.P.R.T.N.T.G.S.G.T.P.[am]}$PEPTIDE1,PEPTIDE1,1:R3-7:R3$$$V2.0) showed a Hypocalcemic activity of 6300 IU mg-1. Work on `CC(C)C[C@H](NC(=O)[C@H](CCCCN)NC(=O)CNC(=O)[C@H](CC(C)C)NC(=O)[C@@H](NC(=O)[C@@H]1CSSC[C@H](N)C(=O)N[C@@H](CO)C(=O)N[C@@H](CC(N)=O)C(=O)N[C@@H](CC(C)C)C(=O)N[C@@H](CO)C(=O)N[C@@H]([C@@H](C)O)C(=O)N1)C(C)C)C(=O)N[C@@H](CO)C(=O)N[C@@H](CCC(N)=O)C(=O)N[C@@H](CCC(=O)O)C(=O)N[C@@H](CC(C)C)C(=O)N[C@@H](Cc1c[nH]cn1)C(=O)N[C@@H](CCCCN)C(=O)N[C@@H](CCC(N)=O)C(=O)N[C@H](C(=O)N[C@@H](Cc1ccc(O)cc1)C(=O)N1CCC[C@H]1C(=O)N[C@@H](CCCN=C(N)N)C(=O)N[C@H](C(=O)N[C@@H](CC(N)=O)C(=O)N[C@H](C(=O)NCC(=O)N[C@@H](CO)C(=O)NCC(=O)N[C@H](C(=O)N1CCC[C@H]1C(N)=O)[C@@H](C)O)[C@@H](C)O)[C@@H](C)O)[C@@H](C)O` (HELM PEPTIDE1{C.S.N.L.S.T.C.V.L.G.K.L.S.Q.E.L.H.K.Q.T.Y.P.R.T.N.T.G.S.G.T.P.[am]}$PEPTIDE1,PEPTIDE1,1:R3-7:R3$$$V2.0) yielded a Hypocalcemic activity of 8000 IU mg-1. Molecule `CC(C)C[C@H](NC(=O)[C@H](CCCCN)NC(=O)CNC(=O)[C@H](CC(C)C)NC(=O)[C@@H](NC(=O)[C@@H]1CSSC[C@H](N)C(=O)N[C@@H](CO)C(=O)N[C@@H](CC(N)=O)C(=O)N[C@@H](CC(C)C)C(=O)N[C@@H](CO)C(=O)N[C@@H]([C@@H](C)O)C(=O)N1)C(C)C)C(=O)N[C@@H](CO)C(=O)N[C@@H](CCC(N)=O)C(=O)N[C@@H](CCC(=O)O)C(=O)N[C@@H](CC(C)C)C(=O)N[C@@H](Cc1c[nH]cn1)C(=O)N[C@@H](CCCCN)C(=O)N[C@H](C(=O)N[C@@H](Cc1ccc(O)cc1)C(=O)N1CCC[C@H]1C(=O)N[C@@H](CCCN=C(N)N)C(=O)N[C@H](C(=O)N[C@@H](CC(N)=O)C(=O)N[C@H](C(=O)NCC(=O)N[C@@H](CO)C(=O)NCC(=O)N[C@H](C(=O)N1CCC[C@H]1C(N)=O)[C@@H](C)O)[C@@H](C)O)[C@@H](C)O)[C@@H](C)O` (HELM PEPTIDE1{C.S.N.L.S.T.C.V.L.G.K.L.S.Q.E.L.H.K.T.Y.P.R.T.N.T.G.S.G.T.P.[am]}$PEPTIDE1,PEPTIDE1,1:R3-7:R3$$$V2.0) has a Hypocalcemic activity of 6400 IU mg-1. `CC(C)C[C@H](NC(=O)[C@H](CCCCN)NC(=O)CNC(=O)[C@H](CC(C)C)NC(=O)[C@@H](NC(=O)[C@@H]1CSSC[C@H](N)C(=O)N[C@@H](CO)C(=O)N[C@@H](CC(N)=O)C(=O)N[C@@H](CC(C)C)C(=O)N[C@@H](CO)C(=O)N[C@@H]([C@@H](C)O)C(=O)N1)C(C)C)C(=O)N[C@@H](CO)C(=O)N[C@@H](CCC(N)=O)C(=O)N[C@@H](CCC(=O)O)C(=O)N[C@@H](CC(C)C)C(=O)N[C@@H](Cc1c[nH]cn1)C(=O)N[C@@H](CCCCN)C(=O)N[C@@H](Cc1ccc(O)cc1)C(=O)N1CCC[C@H]1C(=O)N[C@@H](CCCN=C(N)N)C(=O)N[C@H](C(=O)N[C@@H](CC(N)=O)C(=O)N[C@H](C(=O)NCC(=O)N[C@@H](CO)C(=O)NCC(=O)N[C@H](C(=O)N1CCC[C@H]1C(N)=O)[C@@H](C)O)[C@@H](C)O)[C@@H](C)O` (HELM PEPTIDE1{C.S.N.L.S.T.C.V.L.G.K.L.S.Q.E.L.H.K.Y.P.R.T.N.T.G.S.G.T.P.[am]}$PEPTIDE1,PEPTIDE1,1:R3-7:R3$$$V2.0) was tested, and the Hypocalcemic activity was 7100 IU mg-1. Work on `CC(C)C[C@H](NC(=O)[C@H](CCCCN)NC(=O)CNC(=O)[C@H](CC(C)C)NC(=O)[C@@H](NC(=O)[C@@H]1CSSC[C@H](N)C(=O)N[C@@H](CO)C(=O)N[C@@H](CC(N)=O)C(=O)N[C@@H](CC(C)C)C(=O)N[C@@H](CO)C(=O)N[C@@H]([C@@H](C)O)C(=O)N1)C(C)C)C(=O)N[C@@H](CO)C(=O)N[C@@H](CCC(N)=O)C(=O)N[C@@H](CCC(=O)O)C(=O)N[C@@H](CC(C)C)C(=O)N[C@@H](Cc1c[nH]cn1)C(=O)N[C@@H](CCCCN)C(=O)N[C@@H](CC(C)C)C(=O)N[C@@H](CCC(N)=O)C(=O)N[C@H](C(=O)N[C@@H](Cc1ccc(O)cc1)C(=O)N1CCC[C@H]1C(=O)N[C@@H](CCCNC(=N)N)C(=O)N[C@H](C(=O)N[C@@H](CC(N)=O)C(=O)N[C@H](C(=O)NCC(=O)N[C@@H](CO)C(=O)NCC(=O)N[C@H](C(=O)N1CCC[C@H]1C(N)=O)[C@@H](C)O)[C@@H](C)O)[C@@H](C)O)[C@@H](C)O` [CALCITONIN SALMON] yielded a Hypocalcemic activity of 4500 IU mg-1.
